Assay results from PubChem BioAssay AID743501 (Broad Institute, 2014).
Calls of active or inactive are those of the source.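 The calls were made as follows: active = half-inhibitory concentration IC50 below 35 µM against dopamine receptor luciferase signal; inactive = the rest.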

Tested on: HEK293 dopamine receptor CRE-luciferase, antagonist mode
Assay: inhibition of dopamine-stimulated CRE-luciferase signal, dose response, counter-screen for LGR2 project, cell-based, HEK293, luminescence, dry powder (AID 743501)

Structure (SMILES) | IC50
C[C@H](CO)N1C[C@H](C)[C@H](CN(C)C(=O)Nc2ccccc2)OCCCC[C@H](C)Oc2ccc(NC(=O)C3CCCCC3)cc2C1=O | < 35 µM
COc1ccc(NC(=O)N(C)C[C@@H]2OCCCC[C@H](C)Oc3ccc(NC(=O)C4CCCCC4)cc3C(=O)N([C@H](C)CO)C[C@@H]2C)cc1 | > 35 µM (inactive)
C[C@@H]1CCCCO[C@H](CN(C)C(=O)Nc2ccc(F)cc2)[C@H](C)CN([C@@H](C)CO)C(=O)c2cc(NC(=O)C3CCCCC3)ccc2O1 | > 35 µM (inactive)
C[C@H](CO)N1C[C@H](C)[C@H](CN(C)C(=O)Nc2ccc(F)cc2)OCCCC[C@H](C)Oc2ccc(NC(=O)C3CCCCC3)cc2C1=O | < 35 µM
C[C@H](CO)N1C[C@H](C)[C@H](CN(C)C(=O)Nc2ccc3c(c2)OCO3)OCCCC[C@H](C)Oc2ccc(NC(=O)C3CCCCC3)cc2C1=O | < 35 µM
